Source: PMC5914176 (Journal of medicinal chemistry, 2018)
“And” between values parts separate entries of the source, which are not always exact repeats. Identical values can stand only once. Like-named read-outs stand apart in the source and are kept apart here.

Experiments:
[1] = in vitro; conditions: female, CD9, mouse, microsomes, three replicates
[2] = test system: HCC95 cells; conditions: cited from earlier work
[3] = Liver microsomal stability; conditions: for t(1/2): mouse microsomes, 0.8 μM, mean ± SD, three replicates
[4] = target: T1, DCN1-UBE2M interaction (Homo sapiens, UniProt Q96GG9); test: biochemical; type: binding
T1 sequence (Q96GG9 whole entry): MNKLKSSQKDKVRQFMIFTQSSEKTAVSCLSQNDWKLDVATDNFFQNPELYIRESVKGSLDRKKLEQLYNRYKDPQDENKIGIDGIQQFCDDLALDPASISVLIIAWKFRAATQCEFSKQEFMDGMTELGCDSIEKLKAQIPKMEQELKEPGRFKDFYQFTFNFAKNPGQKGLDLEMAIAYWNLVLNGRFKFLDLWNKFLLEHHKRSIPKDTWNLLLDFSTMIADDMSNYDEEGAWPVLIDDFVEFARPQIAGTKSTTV

[5] = for adverse reactions or compound-related side effects after IV dosing: 48 h monitoring after single IV dose
[6] = target: T1, DCN1-UBE2M interaction; conditions: previously reported potency; cited from earlier work
[7] = test system: HCC95 cells; conditions: cited from earlier work; remark: listed apart in the source
[8] = type: in vivo, mice; conditions: 14 days, 200 mg/kg oral QD or BID
[9] = in vivo; set-up: species or system mice
[10] = test system: DCN1/2 over remaining human DCN isoforms; conditions: cited from earlier work
[11] = in vivo; conditions: mouse, iv, 1.5 mg/kg, t1/2 (IV half-life), IV 0.5, 1.0 and 1.5 mg/kg, plasma
[12] = test system: HCC95 cells; test: Western blot for cellular neddylation and substrate levels; type: cell-based
[13] = pH 7.4, CLint, Table 1, mean ± SD
[14] = pH 7.4, CLint’, Table 2, mean ± SD
[15] = IC50, rounded values in running text
[16] = pH 7.4, CLint’, Table 3, mean ± SD
[17] = female, CD9, mouse, microsomes, pH 7.4
[18] = pH 7.4, CLint’, Table 5, mean ± SD

CCCN1CCC(N(Cc2ccc3c(c2)OCO3)C(=O)Nc2cccc(C(F)(F)F)c2)CC1 [Compound 1]
CLint scaled at 0.8 μM [1, 13]: > 500 mL/min/kg

O=C(Nc1cccc(C(F)(F)F)c1)NC1CCN(Cc2ccccc2)CC1 [Compound 2]
CLint scaled at 0.8 µM [1, 13]: 91.4 ± 8.12 mL/min/kg

CCCN1CCC(N(Cc2ccco2)C(=O)Nc2cccc(C(F)(F)F)c2)CC1 [Compound 3]
CLint scaled at 0.8 µM [1, 13]: 394 ± 55.2 mL/min/kg

CCCN1CCC(N(Cc2ccccc2)C(=O)Nc2cccc(C(F)(F)F)c2)CC1 [Compound 4]
CLint scaled at 0.8 µM [1, 13]: 318 ± 29.6 mL/min/kg

O=C(Nc1cccc(C(F)(F)F)c1)N(Cc1ccccc1)C1CCN(CC2CC2)CC1 [Compound 5]
CLint scaled at 0.8 μM [1, 13]: > 500 mL/min/kg

CCCCN1CCC(N(Cc2ccccc2)C(=O)Nc2cccc(C(F)(F)F)c2)CC1 [Compound 6]
CLint scaled at 0.8 µM [1, 13]: 361 ± 45.1 mL/min/kg

CCCC(C)N1CCC(N(Cc2ccccc2)C(=O)Nc2cccc(C(F)(F)F)c2)CC1 (stereo not shown) [Compound 7, 1-benzyl-1-(1-(pentan-2-yl)piperidin-4-yl)-3-(3-(trifluoromethyl)phenyl)urea]
steady-state levels of cullin neddylation ([2]; HCC95 cells): suppresses steady-state levels of cullin neddylation | CLint scaled at 0.8 μM [1, 13]: 165 ± 25.9 mL/min/kg | t(1/2) ([3]; Table 1): 0.327 ± 0.010 h | fold more potent than initial hit (compound 2) [4]: 100 fold | adverse reactions or compound-related side effects after IV dosing [5]: We did not observe any adverse reactions or compound-related side effects | t1/2 (IV half-life) ([5]; IV 0.5, 1.0 and 1.5 mg/kg, plasma): 8.4 to 12 min | IC50 [6]: 60 nM

CCCCN1CCC(N(Cc2ccc3c(c2)OCO3)C(=O)Nc2cccc(C(F)(F)F)c2)CC1 [Compound 8]
CLint scaled at 0.8 µM [1, 13]: 220 ± 12.8 mL/min/kg

CC(C)(C)N1CCC(N(Cc2ccc3c(c2)OCO3)C(=O)Nc2cccc(C(F)(F)F)c2)CC1 [Compound 9]
CLint scaled at 0.8 µM [1, 13]: 434 ± 21.1 mL/min/kg

CCCN1CCC(N(Cc2cc(F)cc(C(F)(F)F)c2)C(=O)Nc2cccc(C(F)(F)F)c2)CC1 [Compound 10]
CLint scaled at 0.8 µM [1, 13]: 199 ± 9.99 mL/min/kg

CCCC(C)N1CCC(N(Cc2ccccc2)C(=O)Nc2cccc(F)c2)CC1 (stereo not shown) [Compound 21]
CLint scaled at 0.8 μM [1, 14]: ≥ 500 mL/min/kg

CCCC(C)N1CCC(N(Cc2ccccc2)C(=O)Nc2cccc(Cl)c2)CC1 (stereo not shown) [Compound 22]
CLint scaled at 0.8 μM [1, 14]: ≥ 500 mL/min/kg

CCCC(C)N1CCC(N(Cc2ccccc2)C(=O)Nc2cccc(C(C)C)c2)CC1 (stereo not shown) [Compound 23]
CLint scaled at 0.8 µM [1, 14]: 256 ± 22.4 mL/min/kg

CCCC(C)N1CCC(N(Cc2ccccc2)C(=O)Nc2ccc(C(F)(F)F)cc2)CC1 (stereo not shown) [Compound 24]
CLint scaled at 0.8 µM [1, 14]: 125 ± 3.17 mL/min/kg

CCCC(C)N1CCC(N(Cc2ccccc2)C(=O)Nc2ccc(Cl)cc2)CC1 (stereo not shown) [Compound 25]
CLint scaled at 0.8 µM [1, 14]: 156 ± 10.7 mL/min/kg | IC50 ([4]; IC50): 100 nM

CCCC(C)N1CCC(N(Cc2ccccc2)C(=O)Nc2ccc(Br)cc2)CC1 (stereo not shown) [Compound 26]
CLint scaled at 0.8 µM [1, 14]: 148 ± 7.63 mL/min/kg | IC50 [4, 15]: ~60 nM

CCCC(C)N1CCC(N(Cc2ccccc2)C(=O)Nc2ccc(I)cc2)CC1 (stereo not shown) [Compound 27]
CLint scaled at 0.8 µM [1, 14]: 115 ± 2.78 mL/min/kg | IC50 [4, 15]: ~60 nM and 50 nM

CCCC(C)N1CCC(N(Cc2ccccc2)C(=O)Nc2ccc(C)cc2)CC1 (stereo not shown) [Compound 28]
CLint scaled at 0.8 µM [1, 14]: 356 ± 31.9 mL/min/kg

CCCC(C)N1CCC(N(Cc2ccccc2)C(=O)Nc2ccc(C(C)C)cc2)CC1 (stereo not shown) [Compound 29]
CLint scaled at 0.8 µM [1, 14]: 323 ± 4.46 mL/min/kg

CCCC(C)N1CCC(N(Cc2ccccc2)C(=O)Nc2ccc(Cl)c([N+](=O)[O-])c2)CC1 (stereo not shown) [Compound 31]
CLint scaled at 0.8 µM [1, 16]: 151 ± 10.2 mL/min/kg

CCCC(C)N1CCC(N(Cc2ccccc2)C(=O)Nc2ccc(F)c(F)c2)CC1 (stereo not shown) [Compound 32]
CLint scaled at 0.8 µM [1, 16]: 302 ± 15.2 mL/min/kg

CCCC(C)N1CCC(N(Cc2ccccc2)C(=O)Nc2ccc(C)c(F)c2)CC1 (stereo not shown) [Compound 33]
CLint scaled at 0.8 µM [1, 16]: 381 ± 31.9 mL/min/kg

CCCC(C)N1CCC(N(Cc2ccccc2)C(=O)Nc2ccc(C#N)c(C(F)(F)F)c2)CC1 (stereo not shown) [Compound 34]
CLint scaled at 0.8 µM [3, 17]: 61.3 ± 3.49 mL/min/kg | CLint scaled at 0.8 μM [3, 17]: 60 mL/min/kg

CCCC(C)N1CCC(N(Cc2ccccc2)C(=O)Nc2ccc(F)c(C(F)(F)F)c2)CC1 (stereo not shown) [Compound 35]
CLint scaled at 0.8 µM [1, 16]: 145 ± 9.51 mL/min/kg

CCCC(C)N1CCC(N(Cc2ccccc2)C(=O)Nc2cc(F)cc(C(F)(F)F)c2)CC1 (stereo not shown) [Compound 36]
CLint scaled at 0.8 µM [1, 16]: 291 ± 22.4 mL/min/kg

CCCC(C)N1CCC(N(Cc2ccccc2)C(=O)Nc2cc(C(F)(F)F)ccc2F)CC1 (stereo not shown) [Compound 38]
CLint scaled at 0.8 µM [1, 16]: 66.9 ± 5.15 mL/min/kg

CCCC(C)N1CCC(N(Cc2ccccc2)C(=O)Nc2cc(Cl)ccc2F)CC1 (stereo not shown) [Compound 39]
CLint scaled at 0.8 µM [1, 16]: 230 ± 13.1 mL/min/kg

CCCC(C)N1CCC(N(Cc2ccccc2)C(=O)Nc2ccc(C(F)(F)F)nc2C)CC1 (stereo not shown) [Compound 41]
CLint scaled at 0.8 μM [1, 16]: < 13.5 mL/min/kg

CCCC(C)N1CCC(N(Cc2ccccc2)C(=O)Nc2ccc3ncsc3c2)CC1 (stereo not shown) [Compound 42]
CLint scaled at 0.8 µM [1, 16]: 240 ± 24 mL/min/kg

CCCC(C)N1CCC(N(Cc2ccccc2)C(=O)Nc2ccc3c(c2)CCC3)CC1 (stereo not shown) [Compound 43]
CLint scaled at 0.8 μM [1, 16]: ≥ 500 mL/min/kg

CCCCN1CCC(N(Cc2ccccc2)C(=O)Nc2cc(F)cc(C(F)(F)F)c2)CC1 [Compound 47]
CLint scaled at 0.8 µM [1, 18]: 22.3 ± 4.88 mL/min/kg | fold reduction in biochemical potency versus compound 7 [4]: five-fold

CCCCN1CCC(N(Cc2ccccc2)C(=O)Nc2cccc(Cl)c2)CC1 [Compound 63]
CLint scaled at 0.8 μM [1, 18]: ≥ 500 mL/min/kg

CCCCN1CCC(N(Cc2ccccc2)C(=O)Nc2cccc(C)c2)CC1 [Compound 64]
CLint scaled at 0.8 µM [1, 18]: 305 ± 4.02 mL/min/kg

CCCCN1CCC(N(Cc2ccccc2)C(=O)Nc2cccc(C#N)c2)CC1 [Compound 66]
CLint scaled at 0.8 µM [1, 18]: 349 ± 22.5 mL/min/kg

CCCCN1CCC(N(Cc2ccccc2)C(=O)Nc2ccc(Cl)c(Cl)c2)CC1 [Compound 67, 1-benzyl-1-(1-butylpiperidin-4-yl)-3-(3,4-dichlorophenyl)urea]
steady-state levels of neddylated cullins (selectivity among cullins) ([2]; HCC95): selectively reduces steady-state levels of neddylated CUL1 and CUL3 while CUL2, CUL4A, and CUL5 are relatively unaffected | CLint scaled at 0.8 μM [1, 18]: 25.6 ± 4.08 mL/min/kg | t(1/2) ([3]; Table 5): 2.11 ± 0.336 h | bioavailability predicted from in vitro clearance (Fin vitro) ([3]; calculated by 1 - CL/Qh): 78% | anchorage-independent growth [7]: inhibits the anchorage-independent growth of HCC95 cells | adverse reactions or compound-related side effects, repeat dosing [8]: no adverse reactions or compound-related side effects were observed | adverse reactions or compound-related side effects after IV dosing [5]: failed to induce any measureable adverse reactions | adverse reaction after oral administration ([9]; 48 h monitoring, any dose tested): did not cause a significant adverse reaction at any dose tested | half-life ([9]; mouse, in vivo, po, 200 mg/kg): 3 to 5 h | selectivity for DCN1/2 over other DCN isoforms [10]: high level of selectivity for inhibition of DCN1/2 over the highly homologous remaining human DCN isoforms | half-life [11]: 3 to 4 h | fold lower clearance in mouse microsomes than compound 7: six-fold | gross substrate stabilization ([12]; HCC95): does not elicit gross substrate stabilization | steady-state levels of neddylated CUL1 and CUL3 ([12]; HCC95, 48 hours, dosing at T = 0 and T = 24 hr): inhibits steady-state levels of neddylated CUL1 and CUL3 in a dose-dependent manner | levels of CUL1/CUL3 substrates NRF2 and p27 ([12]; HCC95, 48 hours, longer exposures): dose-dependent increase

CCCCN1CCC(N(Cc2ccccc2)C(=O)Nc2cccc(C(F)(F)F)c2F)CC1 [Compound 69]
CLint scaled at 0.8 μM [1, 18]: ≥ 500 mL/min/kg

CCCCN1CCC(N(Cc2ccccc2)C(=O)Nc2ccc(F)c(C(F)(F)F)c2)CC1 [Compound 70]
CLint scaled at 0.8 µM [1, 18]: 27.9 ± 2.71 mL/min/kg

CCCCN1CCC(N(Cc2ccccc2)C(=O)Nc2ccc(C)c(Cl)c2)CC1 [Compound 71]
CLint scaled at 0.8 µM [1, 18]: 189 ± 14.5 mL/min/kg

CCCCN1CCC(N(Cc2ccccc2)C(=O)Nc2ccc(F)c(Cl)c2)CC1 [Compound 72]
CLint scaled at 0.8 µM [1, 18]: 38.7 ± 1.63 mL/min/kg
